In US10179782B2, “Substituted sulfonamide compounds” (Genentech, Inc., priority 2016, dated 2019) one finds IC50 data, which are given here for nine compounds.

The target of the first test is T1, human TRPA1 (Homo sapiens, UniProt O75762).
T1 construct: expressed in transfected cells; host or cells: CHO cells
T1 sequence (O75762 whole entry): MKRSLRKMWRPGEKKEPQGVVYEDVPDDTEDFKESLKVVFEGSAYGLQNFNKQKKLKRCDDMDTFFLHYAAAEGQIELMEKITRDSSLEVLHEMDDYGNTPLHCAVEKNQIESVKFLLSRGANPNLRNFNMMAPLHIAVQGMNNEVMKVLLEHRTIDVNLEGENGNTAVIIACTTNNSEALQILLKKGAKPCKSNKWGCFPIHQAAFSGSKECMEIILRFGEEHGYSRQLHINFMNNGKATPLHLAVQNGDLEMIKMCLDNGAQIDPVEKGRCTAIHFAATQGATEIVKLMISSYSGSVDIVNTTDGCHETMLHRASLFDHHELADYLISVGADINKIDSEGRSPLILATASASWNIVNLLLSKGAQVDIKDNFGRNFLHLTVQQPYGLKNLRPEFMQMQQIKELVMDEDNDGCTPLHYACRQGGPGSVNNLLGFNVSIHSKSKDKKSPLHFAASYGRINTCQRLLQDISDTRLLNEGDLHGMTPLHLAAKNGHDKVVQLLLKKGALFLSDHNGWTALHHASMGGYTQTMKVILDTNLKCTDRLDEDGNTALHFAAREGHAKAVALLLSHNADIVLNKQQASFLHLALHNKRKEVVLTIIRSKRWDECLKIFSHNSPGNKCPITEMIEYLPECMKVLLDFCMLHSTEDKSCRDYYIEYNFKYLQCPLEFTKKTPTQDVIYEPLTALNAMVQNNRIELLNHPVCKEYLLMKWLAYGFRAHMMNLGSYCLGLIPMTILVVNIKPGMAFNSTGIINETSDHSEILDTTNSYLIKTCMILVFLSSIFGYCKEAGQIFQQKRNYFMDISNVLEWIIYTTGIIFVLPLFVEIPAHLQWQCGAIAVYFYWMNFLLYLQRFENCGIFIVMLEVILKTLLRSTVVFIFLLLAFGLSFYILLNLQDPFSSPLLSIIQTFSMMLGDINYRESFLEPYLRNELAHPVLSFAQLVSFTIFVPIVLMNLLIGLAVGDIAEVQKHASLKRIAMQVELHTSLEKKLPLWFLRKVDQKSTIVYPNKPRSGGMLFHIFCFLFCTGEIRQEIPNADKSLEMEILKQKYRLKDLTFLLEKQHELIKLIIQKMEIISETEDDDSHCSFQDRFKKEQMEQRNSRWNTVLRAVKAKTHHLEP
Description: TRPA1 FLIPR Tetra calcium influx assay in CHO cells (block of cinnamaldehyde-induced calcium influx). Format: cell-based. The conditions noted are these: Table 1; CHO cells expressing TRPA1; agonist cinnamaldehyde 75 uM; with vs without substituent at R2/R3; read-out: hTRPA1 CHO Ca2+ AUC EVO (IC50). Summed up:
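CHO cells expressing TRPA1 were loaded with calcium dye in HBSS/20 mM HEPES, pH 7.4, 0.02% BSA, then given compound for 20 min at room temperature before ~EC80 cinnamaldehyde (75 µM human, 45 µM rat). Block of calcium influx was read on FLIPR Tetra; IC50 fitted with Hill coefficient fixed at 1.5.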
What is called IC50 is the midpoint of a concentration-inhibition curve. As to `C[C@H]1[C@H](F)C[C@@H](C(=O)NCc2cc(-c3cnc(C(F)(F)F)nc3)ncc2F)N1S(=O)(=O)c1ccc(F)cc1` [drawing 600, (2S,4R,5S)-4-fluoro-1-(4-fluorophenyl)sulfonyl-N-[[5-fluoro-2-[2-(trifluoromethyl)pyrimidin-5-yl]-4-pyridyl]methyl]-5-methyl-pyrrolidine-2-carboxamide], the IC50 was found to be 2.01 nM.

As for `C[C@H]1[C@H](F)C[C@@H](C(=O)NCc2cc(-c3cnc(C(F)(F)F)nc3)ncn2)N1S(=O)(=O)c1ccc(F)cc1` [drawing 602, (2S,4R,5S)-4-fluoro-1-(4-fluorophenyl)sulfonyl-5-methyl-N-[[6-[2-(trifluoromethyl)pyrimidin-5-yl]pyrimidin-4-yl]methyl]pyrrolidine-2-carboxamide], the IC50 was 21.9 nM.

As for `C[C@H]1[C@H](F)C[C@@H](C(=O)NCc2cc(-c3cnc(C(F)(F)F)nc3)c(Cl)cn2)N1S(=O)(=O)c1ccc(F)cc1` [drawing 604, (2S,4R,5S)-N-[[5-chloro-4-[2-(trifluoromethyl)pyrimidin-5-yl]-2-pyridyl]methyl]-4-fluoro-1-(4-fluorophenyl)sulfonyl-5-methyl-pyrrolidine-2-carboxamide], the concentration for half-maximal inhibition (IC50) came to 4.31 nM.

On to `C[C@H]1[C@H](F)C[C@@H](C(=O)NCc2ccnc(-c3cnc(C(F)(F)F)nc3)c2)N1S(=O)(=O)c1ccc(F)cc1` [drawing 606, (2S,4R,5S)-4-fluoro-1-(4-fluorophenyl)sulfonyl-5-methyl-N-[[2-[2-(trifluoromethyl)pyrimidin-5-yl]-4-pyridyl]methyl]pyrrolidine-2-carboxamide], for which the half-inhibitory concentration (IC50) amounted to 19.5 nM.

Still in this test, the particulars now being: Table 2; CHO cells expressing TRPA1; agonist cinnamaldehyde 75 uM; 20 min compound incubation; Hill coefficient fixed to 1.5; read-out: hTRPA1 CHO Ca2+ AUC EVO (IC50).
Turning to `C[C@H]1[C@H](F)C[C@@H](C(=O)N(COP(=O)(O)O)Cc2cc(-c3cnc(C(F)(F)F)nc3)ncc2F)N1S(=O)(=O)c1ccc(F)cc1` [Example 157, Sodium ((2S,4R,5S)-4-fluoro-N-((5-fluoro-2-(2-(trifluoromethyl)pyrimidin-5-yl)pyridin-4-yl)methyl)-1-((4-fluorophenyl)sulfonyl)-5-methylpyrrolidine-2-carboxamido)methyl phosphate], the IC50 stood at 1200 nM.

With `C[C@H]1[C@H](F)C[C@@H](C(=O)NCc2cc(-c3cnc(C(F)(F)F)nc3)ncc2C(F)(F)F)N1S(=O)(=O)c1cncc(F)c1` [Example 159, (2S,4R,5S)-4-fluoro-1-[(5-fluoro-3-pyridyl)sulfonyl]-5-methyl-N-[[5-(trifluoromethyl)-2-[2-(trifluoromethyl)pyrimidin-5-yl]-4-pyridyl]methyl]pyrrolidine-2-carboxamide], the IC50 was found to be 2.31 nM.

As to `C[C@H]1[C@H](F)C[C@@H](C(=O)NCc2cc(-c3cnc(C(F)(F)F)nc3)ncc2C(F)(F)F)N1S(=O)(=O)c1ccc(C#N)nc1` [Example 160, (2S,4R,5S)-1-[(6-cyano-3-pyridyl)sulfonyl]-4-fluoro-5-methyl-N-[[5-(trifluoromethyl)-2-[2-(trifluoromethyl)pyrimidin-5-yl]-4-pyridyl]methyl]pyrrolidine-2-carboxamide], the IC50 turned out to be 7.27 nM.

As to `C[C@H]1[C@H](F)C[C@@H](C(=O)NCc2cc(-c3cnc(C(F)(F)F)nc3)ncc2C(F)(F)F)N1S(=O)(=O)c1ccc(Cl)nc1` [Example 161, (2S,4R,5S)-1-[(6-chloro-3-pyridyl)sulfonyl]-4-fluoro-5-methyl-N-[[5-(trifluoromethyl)-2-[2-(trifluoromethyl)pyrimidin-5-yl]-4-pyridyl]methyl]pyrrolidine-2-carboxamide], the IC50 came out at 1.96 nM.

On to `C[C@H]1[C@H](F)C[C@@H](C(=O)NCc2cc(-c3cnc(C(F)(F)F)nc3)cnc2C(F)F)N1S(=O)(=O)c1ccc(F)cc1` [Example 162, (2S,4R,5S)-N-[[2-(difluoromethyl)-5-[2-(trifluoromethyl)pyrimidin-5-yl]-3-pyridyl]methyl]-4-fluoro-1-(4-fluorophenyl)sulfonyl-5-methyl-pyrrolidine-2-carboxamide], for which the IC50 was 2.34 nM.
